Assay results as given in PMC3795776, “Alpha-Helical Destabilization of the Bcl-2-BH4-Domain Peptide Abolishes Its Ability to Inhibit the IP3 Receptor” (PLoS ONE, 2013).

What was measured:
[1] = CD spectroscopy, α-helical content (CONTIN/LL deconvolution); format: physicochemical; conditions: 50 µM peptide in 97.5% TFE / 2.5% methanol, 25 °C, 190-260 nm, ten scans, CDPro CONTIN/LL
Method: CD spectra (Jasco J-810 circular dichroism spectropolarimeter, USA) were recorded at 1 nm intervals over the 190-260 nm wavelength range using 1 mm path length quartz cells (Hellma, Germany). Ten scans were performed. The experiments were run at 20 nm/min and the temperature was fixed at 298^° K (25 °C). The secondary structure of the peptide (50 µM) was determined in 97.5% 2,2,2-trifluoroethanol (TFE) and 2.5% methanol. The ellipticity is calculated per mole of amino-acid residue. To estimate the secondary structure of the peptide in terms of α-helical content, an analysis of the relevant CD spectra was carried out using the CDPro software (http://lamar.colostate.edu/~sreeram/CDPro/main.html) developed by Woody and coworkers. The basis set 10 of the CDPro software was used. The analysis was performed using the CONTIN/LL [31], a self-consistent method with an incorporated variable selection.

[2] = tested on: IP3R-mediated Ca2+ release in permeabilized MEF cells; assay: Unidirectional 45Ca2+-flux assay, IP3-induced Ca2+ release (IICR); format: cell-based, mouse; conditions: result in words; for effect on IP3R-mediated Ca2+ release at 50 µM peptide: 3 µM IP3, 50 µM peptide
Method: ^45Ca^2+-unidirectional flux experiments were performed as previously described. Twelve-well clusters containing MEF cells were fixed on a thermostated plate at 30 °C on a mechanical shaker. The culture medium was aspirated, and the cells were permeabilized by incubating them for 10 min in a solution containing 120 mM KCl, 30 mM imidazole-HCl (pH 6.8), 2 mM MgCl2, 1 mM ATP, 1 mM EGTA and 20 µg/ml saponin. The non-mitochondrial Ca^2+ stores were then loaded for 45 min in 120 mM KCl, 30 mM imidazole-HCl (pH 6.8), 5 mM MgCl2, 5 mM ATP, 0.44 mM EGTA, 10 mM NaN3 to prevent mitochondrial Ca^2+ uptake, and 150 nM free ^45Ca^2+ (28 µCi/ml). Then, 1 ml of efflux medium containing 120 mM KCl, 30 mM imidazole-HCl (pH 6.8) and 1 mM EGTA was added and replaced every 2 min. IP3 (3 µM) was added for 2 min after 10 min of efflux. At the end of the experiment, all ^45Ca^2+ remaining in the stores was released by incubation with 1 ml of a 2% (w/v) sodium dodecyl sulfate solution for 30 min. Ca^2+ release was plotted as fractional loss (% / 2 min) as a function of time as previously described. The effect of the BH4-domain peptides on IICR was tested by pre-incubating the peptides for 4 min before exposing the stores to IP3.

[3] = molecular target: GST-Dom3 IP3R1 (GST fused to IP3R1 Domain 3, aa 923-1581) (mouse, UniProt P11881 923-1581); assay: cell-based or functional assay
GST-Dom3 IP3R1 (GST fused to IP3R1 Domain 3, aa 923-1581), sequence (P11881 923-1581): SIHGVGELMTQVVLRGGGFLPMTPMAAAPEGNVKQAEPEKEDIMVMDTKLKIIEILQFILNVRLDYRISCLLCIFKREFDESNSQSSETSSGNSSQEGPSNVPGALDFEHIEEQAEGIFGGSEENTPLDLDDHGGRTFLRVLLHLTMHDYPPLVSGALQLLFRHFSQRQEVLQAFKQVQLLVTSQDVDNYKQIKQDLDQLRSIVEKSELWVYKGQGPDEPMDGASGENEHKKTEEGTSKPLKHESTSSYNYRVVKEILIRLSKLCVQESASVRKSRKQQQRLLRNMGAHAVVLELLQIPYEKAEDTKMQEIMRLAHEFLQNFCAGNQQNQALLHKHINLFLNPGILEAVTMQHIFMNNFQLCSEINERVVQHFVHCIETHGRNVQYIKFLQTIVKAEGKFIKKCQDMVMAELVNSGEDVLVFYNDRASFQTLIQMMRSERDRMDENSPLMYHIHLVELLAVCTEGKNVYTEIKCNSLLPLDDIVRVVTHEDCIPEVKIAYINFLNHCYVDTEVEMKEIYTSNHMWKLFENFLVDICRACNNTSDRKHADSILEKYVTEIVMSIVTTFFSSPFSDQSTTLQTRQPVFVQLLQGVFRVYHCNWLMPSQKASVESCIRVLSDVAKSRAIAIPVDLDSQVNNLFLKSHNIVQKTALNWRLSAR

Molecule | α-helical content [1] [%] | IC50 of inhibition of IP3-induced Ca2+ release (IICR), unidirectional 45Ca2+ flux in permeabilized MEF cells, 3 µM IP3, peptide 0.1-100 µM [3] [µM] | effect on IP3R-mediated Ca2+ release at 50 µM peptide [2] | effect on IICR, concentration-response ([2]; 3 µM IP3, peptide 0.1-100 µM, 3 independent experiments)
WYEKQRSLHGIMYYVIEDRNTKGYR [Bcl-2-BH4 SCR, scrambled version of the Bcl-2-BH4 peptide, reference compound] |  |  |  | neither Bcl-2-BH4 IV/GG (Figure 3A-B) nor the scrambled version of the Bcl-2-BH4 peptide (Bcl-2-BH4 SCR) (Figure 3B) significantly affect IICR
RTGYDNREGVMKYGHYKLSQRGYEW [Bcl-2-BH4 II/GG, Bcl-2-BH4 peptide with glycines at positions I14/I19] | 32 |  | lost their ability to inhibit IP3R-mediated Ca^2+ release | 

The next lines start with results.

α-helical content [1] [%] | IC50 of inhibition of IP3-induced Ca2+ release (IICR), unidirectional 45Ca2+ flux in permeabilized MEF cells, 3 µM IP3, peptide 0.1-100 µM [3] [µM] | Molecule | effect on IP3R-mediated Ca2+ release at 50 µM peptide [2] | effect on IICR, concentration-response ([2]; 3 µM IP3, peptide 0.1-100 µM, 3 independent experiments)
17.7 |  | RTGYDNREIGMKYGHYKGSQRGYEW [Bcl-2-BH4 VIL/GGG, Bcl-2-BH4 peptide with glycines at positions V15/I19/L23] | lost their ability to inhibit IP3R-mediated Ca^2+ release | 
 | ~30 | RTGYDNREIVMKYIHYKLSQRGYEW [Bcl-2-BH4 peptide] |  | 
